Data: ChEMBL document CHEMBL5113548, “Novel Lactams as Cbl-b Inhibitors for Treating Cancer” (ACS Med Chem Lett, 2022)

Target: E3 ubiquitin-protein ligase CBL-B (Homo sapiens, UniProt Q13191)
Test: Inhibition of Cbl-b (unknown origin) assessed as reduction in LCK ubiquitination preincubated for 60 mins followed by kinase mix addition measured after 90 mins by TR-FRET assay

E3 ubiquitin-protein ligase CBL-B, sequence (Q13191 whole entry): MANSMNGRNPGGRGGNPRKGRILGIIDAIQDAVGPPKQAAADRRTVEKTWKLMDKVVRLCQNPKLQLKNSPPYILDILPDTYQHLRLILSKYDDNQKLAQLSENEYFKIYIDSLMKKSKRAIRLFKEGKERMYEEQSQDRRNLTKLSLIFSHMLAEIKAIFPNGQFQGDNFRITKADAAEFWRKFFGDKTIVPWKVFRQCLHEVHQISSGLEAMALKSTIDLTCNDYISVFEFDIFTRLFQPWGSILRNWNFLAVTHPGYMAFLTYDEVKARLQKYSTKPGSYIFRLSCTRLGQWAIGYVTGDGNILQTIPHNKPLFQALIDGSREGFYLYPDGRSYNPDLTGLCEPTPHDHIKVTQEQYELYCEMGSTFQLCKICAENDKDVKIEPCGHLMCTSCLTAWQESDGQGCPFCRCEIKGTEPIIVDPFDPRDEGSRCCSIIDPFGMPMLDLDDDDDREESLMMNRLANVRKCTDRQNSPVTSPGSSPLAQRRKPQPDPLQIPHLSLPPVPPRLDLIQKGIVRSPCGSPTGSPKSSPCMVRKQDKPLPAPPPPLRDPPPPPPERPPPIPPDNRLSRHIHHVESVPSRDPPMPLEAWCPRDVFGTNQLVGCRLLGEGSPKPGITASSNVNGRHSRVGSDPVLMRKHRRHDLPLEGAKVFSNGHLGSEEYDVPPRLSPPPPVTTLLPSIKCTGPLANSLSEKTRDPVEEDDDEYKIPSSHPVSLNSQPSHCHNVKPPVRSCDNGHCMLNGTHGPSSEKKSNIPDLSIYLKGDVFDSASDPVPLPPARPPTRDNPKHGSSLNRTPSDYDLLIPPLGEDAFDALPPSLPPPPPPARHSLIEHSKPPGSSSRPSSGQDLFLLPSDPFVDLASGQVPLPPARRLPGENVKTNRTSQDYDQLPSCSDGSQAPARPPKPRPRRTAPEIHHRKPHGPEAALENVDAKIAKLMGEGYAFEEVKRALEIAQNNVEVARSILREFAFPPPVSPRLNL

Structure (SMILES)	IC50 [nM]
C[C@@H](NC1(C)CCC1)c1cc2c(c(C(F)(F)F)c1)CN(c1cccc(C3(Cc4nncn4C)CC(F)(F)C3)c1)C2=O	5.8
C[C@@H](NC1(C)CCC1)c1cc2c(c(C(F)(F)F)c1)CN(c1cccc(C3([C@@H](F)c4nncn4C)COC3)c1)C2=O	6.7
CC(C)[C@@H]1CN(C)CCN1Cc1cc2c(c(C(F)(F)F)c1)CN(c1cc(C3(Cc4nncn4C)COC3)cc(OC3CCCC3)n1)C2=O	5.5
